Entries after “also recorded” stand apart in the source; their conditions may differ.
How the values were obtained:
5-lipoxygenase (5-LO) = biological target: T1, 5-lipoxygenase (5-LO) (Homo sapiens, UniProt P09917); experiment: 5-LO inhibiting activity in human polymorphonuclear leukocytes ([14C]-arachidonic acid, A23187; HPLC of eicosanoids); assay type: cell-based
T1 construct: endogenous in cells; host or cells: human polymorphonuclear leukocytes from donor blood
T1 sequence (P09917 1-674): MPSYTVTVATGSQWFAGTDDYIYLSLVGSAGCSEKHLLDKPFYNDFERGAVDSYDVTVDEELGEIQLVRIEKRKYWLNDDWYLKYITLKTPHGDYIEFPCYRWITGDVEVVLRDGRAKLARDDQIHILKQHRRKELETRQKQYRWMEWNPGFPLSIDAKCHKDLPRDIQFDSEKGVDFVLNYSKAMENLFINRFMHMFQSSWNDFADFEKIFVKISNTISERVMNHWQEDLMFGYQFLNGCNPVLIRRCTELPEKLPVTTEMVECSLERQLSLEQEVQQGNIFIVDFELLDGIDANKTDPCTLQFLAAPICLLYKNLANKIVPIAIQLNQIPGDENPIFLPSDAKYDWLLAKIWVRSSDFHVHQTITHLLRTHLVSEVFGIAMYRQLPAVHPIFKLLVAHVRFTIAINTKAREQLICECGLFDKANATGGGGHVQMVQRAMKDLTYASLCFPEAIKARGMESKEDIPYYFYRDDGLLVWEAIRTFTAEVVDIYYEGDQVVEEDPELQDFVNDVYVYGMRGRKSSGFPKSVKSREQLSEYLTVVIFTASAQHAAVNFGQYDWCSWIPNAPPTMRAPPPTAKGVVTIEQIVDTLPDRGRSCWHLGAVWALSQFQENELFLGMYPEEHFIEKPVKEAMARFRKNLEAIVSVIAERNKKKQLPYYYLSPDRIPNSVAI
Description: In order to show the 5-LO inhibiting activity of the products of the present invention, a specific test based on human polymorphonuclear leukocytes is chosen.
5-LO Inhibiting Activity in Polymorphonuclear Leukocytes
Blood was obtained from donors which had not received medication during the ten days previous to the extraction. The blood was treated with an anticoagulant (ACD-A) and was centrifuged at 200 g during 12 min at room temperature, separating the supernatant. A solution of Dextran T-500 in physiological serum was added to the pellet, in order to obtain a final concentration of 0.6% w/v, and was allowed to sediment during 40 min. The supernatant was centrifuged at 180 g during 10 min at room temperature. The pellet was resuspended in 5 ml of Hank's buffer, pH 7.4. After the addition of 3 ml of Lymphoprep, the suspension was centrifuged at 450 g during 30 min, and the layers of supernatant were discarded. The next step was the lysis of the erythrocytes present by adding 2 ml of a saline solution. The resulting volume was adjusted to 10 ml with Hank's buffer, pH 7.4. The solution was centrifuged during 10 min at 180 g; the supernatant was discarded and the resulting pellet was resuspended in 1-2 ml of Hank's buffer, pH 7.4. The cellular density was determined using a haemocytometer using the procedure of microcollection Unopette to determine the levels of platelet contamination. Cellular density was adjusted to 2×10^7 cells/ml with Hank's buffer, pH 7.4 and CaCl2 was added to a final concentration of 1.5 mM.
Aliquots (0.5 ml) of the polymorphonuclear leukocytes suspensions, obtained as described in part (a), were incubated during 5 min at 37° C. in the absence (control) and in the presence of three different concentrations of each drug. Afterwards an ethanol solution of [^14 C]-arachidonic acid and A23187 ionophore was added to obtain a final concentration of 10 and 5 μM, respectively. After 5 min of incubation the reaction was stopped by addition of 0.5 ml of ice-cold ethanol. Samples were centrifuged during 2 min at 1500 g, and the supernatants were kept at -80° C. until analyzed. Controls were carried out using the polymorphonuclear leukocyte suspensions aliquots in the presence of the solvent (DMSO) only.
The analysis of the products from the transformation of arachidonic acid through the action of the lipoxygenase (these products being the eicosanoids) was carried out using high pressure liquid chromatography (HPLC), in a reverse phase column (Ultrasphere-ODS, Beckman), injecting 500 μl of the supernatants obtained from the incubations. Elution was carried out using an isocratic mix of mathanol:water:triethylamine:trifluoroacetic acid, 75:25:0.05:0.10, with a flux of 1 ml/min. Detection was carried out with a radioactivity detector with a liquid scintillation cell on-line coupled with the column.

[1] = system: chronic intestinal pathology, chronic lymphoplasmocitary enteritis and hemorrhagic cholitis; experiment: treatment of dogs with gastrointestinal diseases; assay type: in vivo, dog; settings: ten dogs, 1-2 mg/kg.day
Description: A total of ten dogs diagnosed chronic intestinal pathology, chronic lymphoplasmocitary enteritis (diagnosed through a biopsy and more than a year of evolution) and hemorrhagic cholitis, were treated with doses of 1-2 mg/kg.day of Bobel-24.

[2] = system: canine seborrheic dermatitis; experiment: clinical trial on canine seborrheic dermatitis; assay type: in vivo, dog; set-up: key to Evolution, etiology idiopathic / Evolution, etiology demodex / Evolution, etiology follicular cyst / Evolution, etiology pyoderma / Evolution, etiology dermatomycosis / Evolution, etiology allergic to fleas / Evolution, etiology hypothyroidism / Evolution, etiology leishmaniosis: +++: very good response, clinically cured; ++: good response, marked lowering in the clinical signs; +: moderate response, improvement; -: negative response or no apparent improvement; key to Evolution, etiology dermatophytes: +++: very good response, total recovery; ++: good response, functionability recovery; +: moderate response, improvement; -: negative response or no apparent improvement
Description: The animals had been diagnosed to suffer from seborrheic dermatitis, and the diagnosis was confirmed by a biopsy. The treatment consisted of a weekly bath with a 2% Bobel-24 shampoo and evaluation of the treatment after 15 days. The efficiency of the treatment was analyzed evaluating the following therapeutic symptoms; removal of scabs and scales, greasiness reduction, sheborrheic odor reduction, relieve of the pruritus, and antiinflammatory effect. […] In view of the results the following conclusions were reached: […]

cyclooxygenase = settings: in words; cited from earlier work
[3] = weekly bath 2% shampoo, 15 days, Scotty T 4 years

## Oc1c(I)cc(I)cc1I [Bobel-24, 2,4,6-triiodophenol]
5-lipoxygenase (5-LO)
  IC50: 10 µM
5-lipoxygenase (5-LO); 25 μM, arachidonic acid 10 μM, FIG. 2
  products derived from 5-LO biosynthesis (chromatogram): practically complete disappearance of the products derived from 5-LO biosynthesis
5-lipoxygenase (5-LO); 25 μM, arachidonic acid 10 μM, due to contaminating platelets
  15-HETE and 12-HETE formation: increment in 15-HETE and 12-HETE
5-lipoxygenase (5-LO); LTB4, 6-trans-LTB4, 5-HETE, 20-OH-LTB4, FIGS. 3 and 4
  concentration of biosynthesis products versus concentration of the drug: decreased in approximately linear with the concentration of the drug used
5-lipoxygenase (5-LO); ratio from IC50
  concentration required for a given inhibition relative to benoxaprofen or ketaconozale: approximately one tenth; also recorded: ten times smaller
5-lipoxygenase (5-LO); read-out: 5-LO inhibitory activity, approximate inhibition percentage
  inhibition at 25 µM: 100%
5-lipoxygenase (5-LO); versus benoxaprofen and ketoconazole, FIGS. 3 and 4
  gradient of decrease of 5-LO products with concentration, compared with the other two drugs: gradients were greater
[1]
  response: responded very positively in a short time (1-2 weeks)
[2]; 2% shampoo, topical
  secondary or adverse effects (mucosal or skin irritation, unpleasant smells): absence of secondary or adverse effects
[2]; 2% shampoo, all animals except one with dermatophytosis
  scabs, greasiness, seborrheic odor, erithema and pruritus: a lowering of the scabs, disappearance of the greasiness and the seborrheic odor, disappearance of the erithema and the pruritus was observed
[2]; 2% shampoo, improvement similar to oral therapy of corticoids
  result in idiopathic seborrheic dermatitis: excellent
[2]; Bobel-24 shampoo
  result in secondary seborrheic dermatitis: the shampoo improves the aspect of the fur, but does not combat the ethiological agent responsible for the disease
[2]; weekly bath 2% shampoo, 15 days, Cocker A 9 years
  Evolution, etiology hypothyroidism: ++
[2]; weekly bath 2% shampoo, 15 days, Cocker S 8 years
  Evolution, etiology leishmaniosis: ++
[2]; weekly bath 2% shampoo, 15 days, Mongrel 4 years
  Evolution, etiology demodex: ++
[2]; [3]
  Evolution, etiology allergic to fleas: ++
  Evolution, etiology dermatophytes: -
[2]; weekly bath 2% shampoo, 15 days, Yorkshire 7 years
  Evolution, etiology follicular cyst: ++
[2]; weekly bath 2% shampoo, 15 days, b367 Cocker A 13, b393 Cocker S 15, b394 Cocker S 12 years
  Evolution, etiology idiopathic: +++
[2]; weekly bath 2% shampoo, 15 days, b373 Pekinese 2, b396 German shepherd 10 years
  Evolution, etiology pyoderma: ++
[2]; weekly bath 2% shampoo, 15 days, b381 Schnauzer 3, b387 German shepherd 1 year
  Evolution, etiology dermatomycosis: ++
cyclooxygenase
  cyclooxygenase inhibiting activity: some cyclooxygenase inhibiting activity
